Measurements published in patent publication US8735414B2 (priority 2009, dated 2014).

Key:
[1] = system: bicistronic HCV replicon (replicon RNA, GenBank Accession No. AJ242654); assay: HCV Replicon Assay; format: cell-based; details: Hepatitis C virus, 72 h, read-out: Replicon IC50

| Structure (SMILES) | IC50 [1] [nM] | melting point [°C] |
| --- | --- | --- |
| Cc1c(F)cc2c(C#N)c(-c3ccc(S(=O)(=O)NC4(C(F)(F)F)CC4)cn3)n(C3CCC3)c2c1F [compound 667, 6-(3-cyano-1-cyclobutyl-5,7-difluoro-6-methyl-1H-indol-2-yl)-N-[1-(trifluoromethyl)cyclopropyl]pyridine-3-sulfonamide] | < 500 | 235 to 241 |
| COc1cc2c(C#N)c(-c3ccc(S(=O)(=O)N[C@@H](C)C(F)(F)F)cn3)n(C3CCCC3)c2cc1C [compound 669, 6-(3-cyano-1-cyclopentyl-5-methoxy-6-methyl-1H-indol-2-yl)-N-[(2S)-1,1,1-trifluoropropan-2-yl]pyridine-3-sulfonamide] | < 500 | 211 to 211.5 |
| CCc1cc2c(cc1F)c(C#N)c(-c1ccc(S(=O)(=O)NC(C)(C)C(F)(F)F)cn1)n2C1CCCC1 [compound 672, 6-(3-cyano-1-cyclopentyl-6-ethyl-5-fluoro-1H-indol-2-yl)-N-(1,1,1-trifluoro-2-methylpropan-2-yl)pyridine-3-sulfonamide] | < 500 | 142 to 143 |
| C[C@@H](NS(=O)(=O)c1ccc(-c2c(C#N)c3cc(F)ccc3n2-c2ncccn2)nc1)C(F)(F)F [compound 673, 6-[3-cyano-5-fluoro-1-(pyrimidin-2-yl)-1H-indol-2-yl]-N-[(2R)-1,1,1-trifluoropropan-2-yl]pyridine-3-sulfonamide] | < 500 | 202 to 205 |
| C[C@H](NS(=O)(=O)c1ccc(-c2c(C#N)c3cc(O)c(OC(F)F)cc3n2C2CCC2)nc1)C(F)(F)F [compound 674, 6-[3-cyano-1-cyclobutyl-6-(difluoromethoxy)-5-hydroxy-1H-indol-2-yl]-N-[(2S)-1,1,1-trifluoropropan-2-yl]pyridine-3-sulfonamide] | < 500 | 174 to 177 |
| Cc1cc2c(cc1Br)c(C#N)c(-c1ccc(S(=O)(=O)N[C@@H](C)C(F)(F)F)cn1)n2C1CCCC1 [compound 675, 6-(5-bromo-3-cyano-1-cyclopentyl-6-methyl-1H-indol-2-yl)-N-[(2S)-1,1,1-trifluoropropan-2-yl]pyridine-3-sulfonamide] | < 500 | 204 to 204.5 |
| CC(C)(NS(=O)(=O)c1ccc(-c2c(C#N)c3cc(F)c(OC(F)F)cc3n2C2CCC2)nc1)C(F)(F)F [compound 676, 6-[3-cyano-1-cyclobutyl-6-(difluoromethoxy)-5-fluoro-1H-indol-2-yl]-N-(1,1,1-trifluoro-2-methylpropan-2-yl)pyridine-3-sulfonamide] | < 500 | 162 to 165 |
| Cc1ccc2c(C#N)c(-c3ccc(S(=O)(=O)N[C@@H](C)C(F)(F)F)cn3)n(-c3ncccn3)c2c1 [compound 677, 6-[3-cyano-6-methyl-1-(pyrimidin-2-yl)-1H-indol-2-yl]-N-[(2S)-1,1,1-trifluoropropan-2-yl]pyridine-3-sulfonamide] | < 500 | 195 to 198 |
| Cc1cc2c(cc1F)c(C#N)c(-c1ccc(S(=O)(=O)N[C@@H](C)C(F)(F)F)cn1)n2C1CCCCC1 [compound 678, 6-(3-cyano-1-cyclohexyl-5-fluoro-6-methyl-1H-indol-2-yl)-N-[(2S)-1,1,1-trifluoropropan-2-yl]pyridine-3-sulfonamide] | < 500 | 224 to 229 |
| Cc1cc2c(cc1F)c(C#N)c(-c1ccc(S(=O)(=O)N[C@H](C)C(F)(F)F)cn1)n2C1CCCCC1 [compound 680, 6-(3-cyano-1-cyclohexyl-5-fluoro-6-methyl-1H-indol-2-yl)-N-[(2R)-1,1,1-trifluoropropan-2-yl]pyridine-3-sulfonamide] | < 500 | 224 to 229 |
| Cc1cc2c(cc1F)c(C#N)c(-c1ccc(S(=O)(=O)NC(C)(C)C(F)(F)F)cn1)n2C1CCCC1 [compound 681, 6-(3-cyano-1-cyclopentyl-5-fluoro-6-methyl-1H-indol-2-yl)-N-(1,1,1-trifluoro-2-methylpropan-2-yl)pyridine-3-sulfonamide] | < 500 | 223 to 225 |
| C[C@H](NS(=O)(=O)c1ccc(-c2c(C#N)c3cc(Br)c(O)cc3n2C2CCC2)nc1)C(F)(F)F [compound 684, 6-(5-bromo-3-cyano-1-cyclobutyl-6-hydroxy-1H-indol-2-yl)-N-[(2S)-1,1,1-trifluoropropan-2-yl]pyridine-3-sulfonamide] | 500 to 2000 | 223 to 224 |
| Cc1ccc2c(C#N)c(-c3ccc(S(=O)(=O)NC(C)(C)C(F)(F)F)cn3)n(-c3ccccn3)c2c1 [compound 686, 6-[3-cyano-6-methyl-1-(pyridin-2-yl)-1H-indol-2-yl]-N-(1,1,1-trifluoro-2-methylpropan-2-yl)pyridine-3-sulfonamide] | < 500 | 208 to 209 |
| CC(C)(NS(=O)(=O)c1ccc(-c2c(C#N)c3ccc(OC(F)F)cc3n2-c2ccc(F)cc2)nc1)C(F)(F)F [compound 687, 6-[3-cyano-6-(difluoromethoxy)-1-(4-fluorophenyl)-1H-indol-2-yl]-N-(1,1,1-trifluoro-2-methylpropan-2-yl)pyridine-3-sulfonamide] | < 500 | 215 to 216 |
| Cc1ccc2c(C#N)c(-c3ccc(S(=O)(=O)N[C@H](C)C(F)(F)F)cn3)n(-c3ncccn3)c2c1 [compound 688, 6-[3-cyano-6-methyl-1-(pyrimidin-2-yl)-1H-indol-2-yl]-N-[(2R)-1,1,1-trifluoropropan-2-yl]pyridine-3-sulfonamide] | < 500 | 196 to 198 |
| Cc1ccc2c(C#N)c(-c3ccc(S(=O)(=O)NC(C)(C)C(F)(F)F)cn3)n(-c3ncccn3)c2c1 [compound 689, 6-[3-cyano-6-methyl-1-(pyrimidin-2-yl)-1H-indol-2-yl]-N-(1,1,1-trifluoro-2-methylpropan-2-yl)pyridine-3-sulfonamide] | 500 to 2000 | 202 to 205 |
| N#Cc1c(-c2ccc(S(=O)(=O)NC3(C(F)(F)F)CC3)cn2)n(-c2ncccn2)c2cc(OC(F)F)ccc12 [compound 690, 6-[3-cyano-6-(difluoromethoxy)-1-(pyrimidin-2-yl)-1H-indol-2-yl]-N-[1-(trifluoromethyl)cyclopropyl]pyridine-3-sulfonamide] | 500 to 2000 | 170 to 174 |
| Cc1cc2c(cc1O)c(C#N)c(-c1ccc(S(=O)(=O)N[C@@H](C)C(F)(F)F)cn1)n2C1CCCC1 [compound 691, 6-(3-cyano-1-cyclopentyl-5-hydroxy-6-methyl-1H-indol-2-yl)-N-[(2S)-1,1,1-trifluoropropan-2-yl]pyridine-3-sulfonamide] | < 500 | 232 to 233 |
| Cc1cc2c(cc1Br)c(C#N)c(-c1ccc(S(=O)(=O)N[C@H](C)C(F)(F)F)cn1)n2C1CCCC1 [compound 692, 6-(5-bromo-3-cyano-1-cyclopentyl-6-methyl-1H-indol-2-yl)-N-[(2R)-1,1,1-trifluoropropan-2-yl]pyridine-3-sulfonamide] | < 500 | 226.5 to 227 |
| COc1cc2c(C#N)c(-c3ccc(S(=O)(=O)N[C@H](C)C(F)(F)F)cn3)n(C3CCCC3)c2cc1C [compound 694, 6-(3-cyano-1-cyclopentyl-5-methoxy-6-methyl-1H-indol-2-yl)-N-[(2R)-1,1,1-trifluoropropan-2-yl]pyridine-3-sulfonamide] | 2000 to 5000 | 210.5 to 211 |
| Cc1cc2c(cc1F)c(C#N)c(-c1ccc(S(=O)(=O)N[C@H](C)C(F)(F)F)cn1)n2-c1ccccn1 [compound 698, 6-[3-cyano-5-fluoro-6-methyl-1-(pyridin-2-yl)-1H-indol-2-yl]-N-[(2R)-1,1,1-trifluoropropan-2-yl]pyridine-3-sulfonamide] | < 500 | 170 to 174 |
| Cc1cc2c(cc1F)c(C(N)=O)c(-c1ccc(S(=O)(=O)N[C@H](C)C(F)(F)F)cn1)n2C1CCCC1 [compound 699, 1-cyclopentyl-5-fluoro-6-methyl-2-(5-{[(2R)-1,1,1-trifluoropropan-2-yl]sulfamoyl}pyridin-2-yl)-1H-indole-3-carboxamide] | < 500 | 243 to 245 |
| Cc1cc2c(cc1F)c(C(N)=O)c(-c1ccc(S(=O)(=O)N[C@@H](C)C(F)(F)F)cn1)n2C1CCCC1 [compound 700, 1-cyclopentyl-5-fluoro-6-methyl-2-(5-{[(2S)-1,1,1-trifluoropropan-2-yl]sulfamoyl}pyridin-2-yl)-1H-indole-3-carboxamide] | < 500 | 244 to 246 |
| Cc1cc2c(cc1F)c(C(N)=O)c(-c1ccc(S(=O)(=O)NC(C)(C)C(F)(F)F)cn1)n2C1CCCC1 [compound 701, 1-cyclopentyl-5-fluoro-6-methyl-2-{5-[(1,1,1-trifluoro-2-methylpropan-2-yl)sulfamoyl]pyridin-2-yl}-1H-indole-3-carboxamide] | < 500 | 211 to 214 |
| C[C@H](NS(=O)(=O)c1ccc(-c2c(C#N)c3cc(CC(F)F)ccc3n2C2CCC2)nc1)C(F)(F)F [compound 702, 6-[3-cyano-1-cyclobutyl-5-(2,2-difluoroethyl)-1H-indol-2-yl]-N-[(2S)-1,1,1-trifluoropropan-2-yl]pyridine-3-sulfonamide] | < 500 | 143 to 147 |
| C[C@H](NS(=O)(=O)c1ccc(-c2c(C(N)=O)c3cc(F)c(OC(F)F)cc3n2C2CCC2)nc1)C(F)(F)F [compound 703, 1-cyclobutyl-6-(difluoromethoxy)-5-fluoro-2-(5-{[(2S)-1,1,1-trifluoropropan-2-yl]sulfamoyl}pyridin-2-yl)-1H-indole-3-carboxamide] | < 500 | 184 to 186 |
| Cc1cc2c(cc1F)c(C#N)c(-c1ccc(S(=O)(=O)NC(C)(C)C(F)(F)F)cn1)n2C1CCCCC1 [compound 705, 6-(3-cyano-1-cyclohexyl-5-fluoro-6-methyl-1H-indol-2-yl)-N-(1,1,1-trifluoro-2-methylpropan-2-yl)pyridine-3-sulfonamide] | < 500 | 248 to 254 |
